Where “and” joins values, the source holds several entries; their conditions need not be identical. Identical values can stand only once.
Assay: xn = mol fraction of the nth substance listed

CC(=O)N(C)C + O
Settings	viscosity
298.15 K, 101 kPa, x1 = 0.0203	1.214 mPa·s
298.15 K, 101 kPa, x1 = 0.025	1.265 mPa·s
298.15 K, 101 kPa, x1 = 0.0502	1.653 mPa·s
298.15 K, 101 kPa, x1 = 0.065	1.871 mPa·s
298.15 K, 101 kPa, x1 = 0.0703	1.982 mPa·s
298.15 K, 101 kPa, x1 = 0.1	2.467 mPa·s
298.15 K, 101 kPa, x1 = 0.1011	2.413 mPa·s
298.15 K, 101 kPa, x1 = 0.12	2.754 mPa·s
298.15 K, 101 kPa, x1 = 0.1203	2.797 mPa·s
298.15 K, 101 kPa, x1 = 0.1495	3.161 mPa·s
298.15 K, 101 kPa, x1 = 0.1497	3.223 mPa·s
298.15 K, 101 kPa, x1 = 0.1698	3.471 mPa·s
298.15 K, 101 kPa, x1 = 0.2003	3.774 mPa·s
298.15 K, 101 kPa, x1 = 0.2004	3.728 mPa·s
298.15 K, 101 kPa, x1 = 0.22	3.908 mPa·s
298.15 K, 101 kPa, x1 = 0.2497	4.023 mPa·s
298.15 K, 101 kPa, x1 = 0.2512	3.94 mPa·s
298.15 K, 101 kPa, x1 = 0.2701	4.04 mPa·s
298.15 K, 101 kPa, x1 = 0.3	3.99 mPa·s
298.15 K, 101 kPa, x1 = 0.3002	3.941 mPa·s
298.15 K, 101 kPa, x1 = 0.32	3.917 mPa·s
298.15 K, 101 kPa, x1 = 0.3501	3.692 mPa·s and 3.761 mPa·s
298.15 K, 101 kPa, x1 = 0.4002	3.426 mPa·s
298.15 K, 101 kPa, x1 = 0.4009	3.341 mPa·s
298.15 K, 101 kPa, x1 = 0.4503	3.059 mPa·s
298.15 K, 101 kPa, x1 = 0.5003	2.69 mPa·s
298.15 K, 101 kPa, x1 = 0.5018	2.606 mPa·s
298.15 K, 101 kPa, x1 = 0.5999	2.09 mPa·s
298.15 K, 101 kPa, x1 = 0.6031	1.995 mPa·s
298.15 K, 101 kPa, x1 = 0.6505	1.777 mPa·s
298.15 K, 101 kPa, x1 = 0.7	1.646 mPa·s
298.15 K, 101 kPa, x1 = 0.7005	1.592 mPa·s
298.15 K, 101 kPa, x1 = 0.755	1.419 mPa·s
298.15 K, 101 kPa, x1 = 0.8002	1.329 mPa·s
298.15 K, 101 kPa, x1 = 0.8048	1.284 mPa·s
298.15 K, 101 kPa, x1 = 0.8499	1.212 mPa·s
298.15 K, 101 kPa, x1 = 0.8501	1.185 mPa·s
298.15 K, 101 kPa, x1 = 0.8999	1.113 mPa·s
298.15 K, 101 kPa, x1 = 0.9049	1.083 mPa·s
298.15 K, 101.33 kPa, x2 = 0.1008	1.071 mPa·s
298.15 K, 101.33 kPa, x2 = 0.2042	1.286 mPa·s
298.15 K, 101.33 kPa, x2 = 0.3008	1.582 mPa·s
298.15 K, 101.33 kPa, x2 = 0.4068	2.047 mPa·s
298.15 K, 101.33 kPa, x2 = 0.5052	2.607 mPa·s
298.15 K, 101.33 kPa, x2 = 0.6026	3.31 mPa·s
298.15 K, 101.33 kPa, x2 = 0.7051	3.873 mPa·s
298.15 K, 101.33 kPa, x2 = 0.8054	3.612 mPa·s
298.15 K, 101.33 kPa, x2 = 0.9239	2.342 mPa·s
298.16 K, 101 kPa, x2 = 0.09	1.07 mPa·s
298.16 K, 101 kPa, x2 = 0.155	1.2 mPa·s
298.16 K, 101 kPa, x2 = 0.235	1.4 mPa·s
298.16 K, 101 kPa, x2 = 0.314	1.67 mPa·s
298.16 K, 101 kPa, x2 = 0.459	2.37 mPa·s
298.16 K, 101 kPa, x2 = 0.604	3.4 mPa·s
298.16 K, 101 kPa, x2 = 0.6607	3.75 mPa·s
298.16 K, 101 kPa, x2 = 0.741	3.97 mPa·s
298.16 K, 101 kPa, x2 = 0.7645	3.94 mPa·s
298.16 K, 101 kPa, x2 = 0.8044	3.65 mPa·s
298.16 K, 101 kPa, x2 = 0.8517	3.16 mPa·s
300.2 K, 101 kPa, x2 = 0.0298	1.005 mPa·s
300.2 K, 101 kPa, x2 = 0.0519	1.037 mPa·s
300.2 K, 101 kPa, x2 = 0.0694	1.062 mPa·s
300.2 K, 101 kPa, x2 = 0.0926	1.105 mPa·s
300.2 K, 101 kPa, x2 = 0.2763	1.564 mPa·s
300.2 K, 101 kPa, x2 = 0.436	2.3 mPa·s
300.2 K, 101 kPa, x2 = 0.555	3.112 mPa·s
300.2 K, 101 kPa, x2 = 0.6259	3.615 mPa·s
300.2 K, 101 kPa, x2 = 0.6897	3.957 mPa·s
300.2 K, 101 kPa, x2 = 0.7347	4.029 mPa·s
300.2 K, 101 kPa, x2 = 0.7737	3.926 mPa·s
300.2 K, 101 kPa, x2 = 0.8015	3.741 mPa·s
300.2 K, 101 kPa, x2 = 0.8783	2.782 mPa·s
300.2 K, 101 kPa, x2 = 0.9515	1.599 mPa·s
303.15 K, 101 kPa, x1 = 0.0203	1.076 mPa·s
303.15 K, 101 kPa, x1 = 0.0502	1.443 mPa·s
303.15 K, 101 kPa, x1 = 0.0703	1.716 mPa·s
303.15 K, 101 kPa, x1 = 0.1	2.112 mPa·s
303.15 K, 101 kPa, x1 = 0.1203	2.379 mPa·s
303.15 K, 101 kPa, x1 = 0.1497	2.719 mPa·s
303.15 K, 101 kPa, x1 = 0.1698	2.915 mPa·s
303.15 K, 101 kPa, x1 = 0.2003	3.156 mPa·s
303.15 K, 101 kPa, x1 = 0.22	3.263 mPa·s
303.15 K, 101 kPa, x1 = 0.2497	3.357 mPa·s
303.15 K, 101 kPa, x1 = 0.2701	3.373 mPa·s
303.15 K, 101 kPa, x1 = 0.3	3.339 mPa·s
303.15 K, 101 kPa, x1 = 0.32	3.286 mPa·s
303.15 K, 101 kPa, x1 = 0.3501	3.169 mPa·s
303.15 K, 101 kPa, x1 = 0.4002	2.914 mPa·s
303.15 K, 101 kPa, x1 = 0.4503	2.628 mPa·s
303.15 K, 101 kPa, x1 = 0.5003	2.336 mPa·s
303.15 K, 101 kPa, x1 = 0.5999	1.852 mPa·s
303.15 K, 101 kPa, x1 = 0.7	1.484 mPa·s
303.15 K, 101 kPa, x1 = 0.8002	1.216 mPa·s
303.15 K, 101 kPa, x1 = 0.8499	1.114 mPa·s
308.15 K, 101 kPa, x1 = 0.065	1.428 mPa·s
308.15 K, 101 kPa, x1 = 0.1	1.767 mPa·s
308.15 K, 101 kPa, x1 = 0.1011	1.81 mPa·s
308.15 K, 101 kPa, x1 = 0.1495	2.307 mPa·s
308.15 K, 101 kPa, x1 = 0.2	2.629 mPa·s
308.15 K, 101 kPa, x1 = 0.2004	2.661 mPa·s
308.15 K, 101 kPa, x1 = 0.2512	2.79 mPa·s
308.15 K, 101 kPa, x1 = 0.3	2.763 mPa·s
308.15 K, 101 kPa, x1 = 0.3002	2.784 mPa·s
308.15 K, 101 kPa, x1 = 0.3501	2.667 mPa·s
308.15 K, 101 kPa, x1 = 0.4	2.479 mPa·s
308.15 K, 101 kPa, x1 = 0.4009	2.474 mPa·s
308.15 K, 101 kPa, x1 = 0.5018	1.929 mPa·s
308.15 K, 101 kPa, x1 = 0.6	1.694 mPa·s
308.15 K, 101 kPa, x1 = 0.6031	1.568 mPa·s
308.15 K, 101 kPa, x1 = 0.6505	1.424 mPa·s
308.15 K, 101 kPa, x1 = 0.7005	1.305 mPa·s
308.15 K, 101 kPa, x1 = 0.755	1.183 mPa·s
308.15 K, 101 kPa, x1 = 0.8048	1.085 mPa·s
308.15 K, 101 kPa, x1 = 0.8501	1.003 mPa·s
308.15 K, 101 kPa, x1 = 0.9049	0.922 mPa·s
318.15 K, 101 kPa, x1 = 0.025	0.784 mPa·s
318.15 K, 101 kPa, x1 = 0.065	1.106 mPa·s
318.15 K, 101 kPa, x1 = 0.1011	1.387 mPa·s
318.15 K, 101 kPa, x1 = 0.12	1.533 mPa·s
318.15 K, 101 kPa, x1 = 0.1495	1.718 mPa·s
318.15 K, 101 kPa, x1 = 0.2004	1.944 mPa·s
318.15 K, 101 kPa, x1 = 0.2512	2.05 mPa·s
318.15 K, 101 kPa, x1 = 0.3002	2.056 mPa·s
318.15 K, 101 kPa, x1 = 0.3501	1.986 mPa·s
318.15 K, 101 kPa, x1 = 0.4009	1.853 mPa·s
318.15 K, 101 kPa, x1 = 0.5018	1.553 mPa·s
318.15 K, 101 kPa, x1 = 0.6031	1.274 mPa·s
318.15 K, 101 kPa, x1 = 0.6505	1.178 mPa·s
318.15 K, 101 kPa, x1 = 0.7005	1.085 mPa·s
318.15 K, 101 kPa, x1 = 0.755	0.999 mPa·s
318.15 K, 101 kPa, x1 = 0.8048	0.932 mPa·s
318.15 K, 101 kPa, x1 = 0.8501	0.868 mPa·s
318.15 K, 101 kPa, x1 = 0.9049	0.803 mPa·s

CC(O)CN(C)C (stereo not drawn) + O
viscosity [mPa·s], 101 kPa
Settings	293.15 K	303.15 K	308.15 K	313.15 K	318.15 K	323.15 K
x1 = 0.05	–	2.279	1.935	1.656	1.441	1.264
x1 = 0.0997	–	4.278	3.466	2.852	2.393	2.027
x1 = 0.1	7.22	4.74	–	–	–	2.15
x1 = 0.1507	–	5.905	4.691	3.78	3.11	2.592
x1 = 0.2001	9.89	6.37	–	4.08	–	2.82
x1 = 0.2021	–	6.775	5.334	4.263	3.485	2.881
x1 = 0.2501	–	–	5.478	4.372	3.562	2.935
x1 = 0.3003	9.87	6.34	–	4.01	–	2.8
x1 = 0.3013	–	6.703	5.288	4.227	3.449	2.847
x1 = 0.3507	–	6.218	4.934	–	3.249	2.692
x1 = 0.3998	8.61	5.52	–	3.49	–	2.47
x1 = 0.4013	–	5.613	4.485	3.628	2.989	–
x1 = 0.4578	–	4.875	3.936	3.213	2.674	–
x1 = 0.4999	6.61	4.37	–	2.8	–	2.01
x1 = 0.5049	–	4.294	3.499	2.882	2.426	–
x1 = 0.6	4.76	3.18	–	2.17	–	1.62
x1 = 0.6009	–	3.285	2.747	2.294	1.955	–
x1 = 0.7002	3.38	2.31	–	1.69	–	1.32
x1 = 0.7054	–	2.482	2.111	1.807	1.57	–
x1 = 0.7955	–	1.957	1.697	1.479	1.305	–
x1 = 0.8	2.47	1.83	–	1.4	–	1.11
x1 = 0.8905	–	1.561	1.375	1.218	1.092	–
x1 = 0.9001	1.94	1.5	–	1.17	–	0.95
x1 = 0.9564	–	1.347	1.201	1.077	0.973	–
